Columns and labels:
Assay in all cases: relative viability (nuclei count vs DMSO), 5 days (fraction); higher = more cells survive
[1] = compound: Cn1c(Nc2ccc(C(F)(F)F)cc2)nc2cc(Oc3ccnc(-c4ncc(C(F)(F)F)[nH]4)c3)ccc21 [RAF265] + Cc1cc(Nc2cc(N3CCN(C)CC3)nc(Sc3ccc(NC(=O)C4CC4)cc3)n2)n[nH]1 [Tozasertib] (partner 0.1 µM)
Summary of the method: (§1)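 Medians of duplicate plates are given as relative viability. That measure is the nuclei count in treated wells divided by the count in vehicle wells. Counts were taken on 4× images of lung cancer cell lines in 1536-well plates, 5 days after pin-tool dosing the day after seeding with one drug alone or a fixed anchor-drug dose plus five library-drug doses (not always all listed) in √10 steps.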

[2] = compound: Cn1c(Nc2ccc(C(F)(F)F)cc2)nc2cc(Oc3ccnc(-c4ncc(C(F)(F)F)[nH]4)c3)ccc21 [RAF265] + Cc1nc(Nc2ncc(C(=O)Nc3c(C)cccc3Cl)s2)cc(N2CCN(CCO)CC2)n1 [Dasatinib] (partner 0.075 µM)
Summary of the method: as §1

[3] = compound: Cc1ccc(-n2nc(C(C)(C)C)cc2NC(=O)Nc2ccc(OCCN3CCOCC3)c3ccccc23)cc1 [Doramapimod] + O=C(CCCCCCC(=O)Nc1ccccc1)NO [Vorinostat] (partner 1 µM)
Summary of the method: as §1

[4] = compound: Cc1ccc(-n2nc(C(C)(C)C)cc2NC(=O)Nc2ccc(OCCN3CCOCC3)c3ccccc23)cc1 [Doramapimod] + Cc1nc(NC(=O)N2CCC[C@H]2C(N)=O)sc1-c1ccnc(C(C)(C)C(F)(F)F)c1 [Alpelisib] (partner 2 µM)
Summary of the method: as §1

Cell Line | relative viability ([1]; first compound 0.01 µM) | relative viability ([1]; first compound 0.03162 µM) | relative viability ([1]; first compound 0.1 µM) | relative viability ([1]; first compound 0.3162 µM) | relative viability ([1]; first compound 1 µM) | relative viability ([2]; first compound 0.01 µM) | relative viability ([2]; first compound 0.03162 µM) | relative viability ([2]; first compound 0.1 µM) | relative viability ([2]; first compound 0.3162 µM) | relative viability ([2]; first compound 1 µM) | relative viability ([3]; first compound 0.02 µM) | relative viability ([3]; first compound 0.06325 µM) | relative viability ([3]; first compound 0.2 µM) | relative viability ([3]; first compound 0.6325 µM) | relative viability ([3]; first compound 2 µM) | relative viability ([4]; first compound 0.02 µM) | relative viability ([4]; first compound 0.06325 µM) | relative viability ([4]; first compound 0.2 µM) | relative viability ([4]; first compound 0.6325 µM) | relative viability ([4]; first compound 2 µM)
NCI-H522 | 0.57 | 0.602 | 0.546 | 0.553 | 0.521 | 0.847 | 0.9 | 0.811 | 0.919 | 0.764 | 0.963 | 1.05 | 0.871 | 0.845 | 0.874 | – | – | – | – | –
NCI-H1944 | 0.265 | 0.248 | 0.265 | 0.234 | 0.185 | 0.284 | 0.277 | 0.225 | 0.178 | 0.19 | 0.504 | 0.616 | 0.575 | 0.665 | 0.611 | 0.756 | 0.829 | 0.765 | 0.829 | 0.71
NCI-H727 | 0.703 | 0.642 | 0.641 | 0.536 | 0.411 | 0.57 | 0.427 | 0.352 | 0.279 | 0.23 | 1.18 | 1.18 | 1.14 | 1.05 | 1.1 | 0.5 | 0.587 | 0.598 | 0.675 | 0.528
NCI-H1650 | 0.377 | 0.425 | 0.473 | 0.446 | 0.304 | 0.413 | 0.392 | 0.342 | 0.399 | 0.282 | 0.571 | 0.586 | 0.553 | 0.729 | 0.528 | – | – | – | – | –
HCC-827 | 0.412 | 0.421 | 0.445 | – | 0.361 | 0.277 | 0.259 | 0.422 | – | 0.234 | 0.854 | 1.02 | 0.805 | 0.85 | 0.554 | 0.931 | 1.01 | 0.97 | 1.01 | 0.612
HCC-366 | 0.137 | 0.165 | 0.138 | 0.0437 | 0.0369 | 0.724 | 0.627 | 0.664 | 0.583 | 0.511 | 0.329 | 0.421 | 0.44 | 0.42 | 0.32 | 0.403 | 0.325 | 0.38 | 0.39 | 0.299
HARA | 0.12 | 0.0972 | 0.13 | 0.0934 | 0.0806 | 0.298 | 0.385 | 0.256 | 0.184 | 0.137 | 0.532 | 0.496 | 0.547 | 0.506 | 0.486 | 0.807 | 0.762 | 0.742 | 0.846 | 0.598
NCI-H322M | 0.479 | 0.462 | 0.306 | 0.327 | 0.223 | 0.267 | 0.278 | 0.229 | 0.303 | 0.213 | 0.889 | 0.943 | 0.979 | 0.998 | 0.94 | 0.774 | 0.734 | 0.785 | 0.801 | 0.933
LXF-289 | 0.217 | 0.172 | 0.174 | 0.205 | 0.108 | 0.246 | 0.152 | 0.16 | 0.142 | 0.0862 | 0.811 | 0.775 | 0.747 | 0.723 | 0.635 | 1.03 | 0.992 | 1.01 | 1.02 | 0.956
PC-3 [JPC-3] | 0.889 | 0.868 | 0.985 | – | 0.518 | 0.985 | 0.908 | 1 | – | 0.696 | 0.967 | 1.39 | 1.22 | 0.564 | 0.744 | 1.15 | 1.01 | 1.09 | 1.11 | 0.978
CAL-12T | 0.392 | 0.308 | 0.364 | 0.306 | 0.172 | 0.313 | 0.312 | 0.191 | 0.196 | 0.103 | 0.621 | 0.787 | 0.713 | 0.945 | 0.754 | 1.1 | 1.05 | 1.21 | 1.41 | 1.09
COR-L 105 | 0.435 | 0.423 | 0.341 | 0.451 | 0.317 | 0.311 | 0.319 | 0.258 | 0.159 | 0.158 | 0.671 | 0.881 | 0.763 | 1 | 0.764 | 0.844 | 1.07 | 0.983 | 1 | 0.963
NCI-H2347 | 0.653 | 0.507 | 0.809 | 0.436 | 0.325 | 0.358 | 0.331 | 0.341 | 0.213 | 0.237 | 0.652 | 0.555 | 0.569 | 0.644 | 0.538 | 1.09 | 0.926 | 1.06 | 1.05 | 0.957
NCI-H2126 | 0.905 | 0.844 | 0.826 | 0.881 | 0.607 | 0.716 | 0.656 | 0.622 | 0.464 | 0.354 | 0.792 | 0.765 | 0.763 | 0.671 | 0.671 | 0.743 | 0.733 | 0.733 | 0.742 | 0.662
